Reference: patent US8080529B2, “Macrolides with anti-inflammatory activity” (Glaxo Group Limited, priority 2005, dated 2011)

Legend:
IL-2 = assay: Inhibition of IL-2 production by PHA-stimulated human PBMC in vitro; type: cell-based; settings: 3 days
Procedure: (§1) Heparinized peripheral blood was obtained from healthy donors, and peripheral blood mononuclear cells (PBMC) were isolated by Histopaque 1077 (Sigma, USA) density centrifugation at 400×g for 30 minutes. Collected PBMC were centrifuged in plasma at 400×g for 10 min, resuspended and washed in RPMI 1640 (Institute of Immunology, Croatia) by centrifugation.
(§2) Peripheral blood mononuclear cells (PBMC), isolated as described above, were seeded in a 48-well plate at a concentration of 1×10^6 cells per well in the RPMI culture medium described above. Cells were stimulated with 10 μg/mL phytohaemagglutinin (PHA) (Sigma, USA) and incubated at 37° C., 5% CO2 in 90% humidity with tested compounds (10 and 50 μM) for 3 days. Cytokine concentrations were determined in supernatants by sandwich ELISA, using capture and detection antibodies (R&D, USA) according to the manufacturer's recommendations.
(§3) Inhibition (as percentage) was calculated using the following formula: % inhibition=(1−concentration of cytokines in sample/concentration of cytokines in positive control)×100.
(§4) The positive control refers to LPS-, PMA- or zymosan-stimulated samples that were not treated with test compounds.

neutrophils = assay: Lung neutrophilia induced by bacterial lipopolysaccharide in male BALB/cJ mice: cells in BALF and lung tissue; type: in vivo; settings: 5 mg i.p.; 24 hours after LPS
Procedure: (§5) Male BALB/cJ mice (Iffa Credo, France), with average weight 30 g were randomly grouped (n=7 in testing group, 8 in positive control, 7 in negative control). Mice were administered intraperitoneally (i.p.) a single dose of 5 or 2.5 mg of test compound. Two hours after administration, 2 μg of bacterial lipopolysaccharide (LPS), dissolved in PBS in a volume of 60 μL, was intranasally administered to all experimental groups except the negative control group, which received the same volume (60 μL) of vehicle PBS. Animals were sacrificed approximately 24 hours after application of LPS in order to obtain bronchoalveolar lavage fluid (BALF), which was used to determine concentrations of IL-6 and TNF-α, absolute number of cells, and the percentage of neutrophils in BALF. Results are expressed as percentage of decrease of total cell number, relative number of neutrophils, and TNF-α, and IL-6 concentration in BALF of treated animals compared to positive control (LPS stimulated, but untreated animals).
(§6) Results are expressed as percentage of decrease of total cell number, relative number of neutrophils, and TNF-alpha and IL-6 concentration in BALF of treated animals compared to positive control (LPS stimulated, but untreated animals).
Besides accumulation of inflammatory cells in BALF, the extent and anatomic site of pulmonary inflammation induced by LPS was assessed 24 hours after PBS or LPS exposure. Accumulation of granulocytes and mononuclear cells in peribronchial (PB) and perivascular (PV) lung tissue areas and in alveolar spaces was monitored following sacrifice of the animals.

granulocytes = assay: Inhibition of degranulation of granulocytes (free neutrophil elastase activity); type: cell-based, human
Procedure: Granulocytes were obtained from heparinized whole blood using density gradiant centrifugation. Erythrocytes were sedimented on 3% dextran T-500 (Amersham Pharmacia Biotech AB, Uppsala, Sweden). Leukocytes were centrifuged on Ficoll (Amersham Pharmacia Biotech AB, Uppsala, Sweden) for 35 min at 600 g at 20° C. The pellet of granulocytes was cleared from remaining erythrocytes by a brief hypotonic lysis.
1×10^6 granulocytes, isolated as described above, were resuspended in RPMI-1640 medium (Institute of Immunology, Croatia), and were incubated with 10 or 50 μM of test compound together with cytochalasine B (5 μg/mL) for 2 h at 37° C. Degranulation then was induced by the addition of 0.1 μM fMLP (Sigma, USA) or 0.5 μM A23187 (Calbiochem, USA). The activity of free neutrophil elastase was determined with a chromogenic substrate specific for human neutrophil elastase, such as N-(methoxysuccinyl)-L-alanyl-L-alanyl-L-prolyl-L-valine 4-nitroanilide (Sigma Chemical Company, St Louis, Mo., USA). Elastase activity, as a marker of primary granules, was assessed in supernatant using a spectrophotometer at an absorbance of 405 nm.
Results are expressed as the percent of inhibition of degranulation in unstimulated cells, and in stimulated cells treated with fMLP or A23187.

IL-6 = assay: Lung neutrophilia induced by bacterial lipopolysaccharide in male BALB/cJ mice: IL-6 in BALF; type: in vivo; settings: 5 mg i.p.; 24 hours after LPS
Procedure: as §5, §6

IL-5 = assay: Inhibition of IL-5 production by PHA-stimulated human PBMC in vitro; type: cell-based; settings: 3 days
Procedure: as §1, §2, §3, §4

TNF-α = assay: Lung neutrophilia induced by bacterial lipopolysaccharide in male BALB/cJ mice: TNF-α in BALF; type: in vivo; settings: 5 mg i.p.; 24 hours after LPS
Procedure: as §5, §6

LPS-induced septic shock = assay: Septic shock induced by bacterial lipopolysaccharide in male BALB/cJ mice; type: in vivo; settings: 24 hours
Procedure: Male BALB/cJ mice, (Iffa Credo, Lyon, France) 8 weeks old, weighing 25 g were randomly grouped (n=10 in testing groups and 15 in control group). Animals were primed with 4 μg bacterial lipopolysaccharide (LPS) that was dissolved in saline and administered i.pl. After 18-24 hours animals were challenged by an intravenous injection of 90 μg LPS in a volume of 0.2 mL. Animals were treated with the test compounds or the vehicle (control) intraperitoneally . . . or per os 30 min prior to each injection of LPS. Survival throughout 24 hours was monitored.

CCC1OC(=O)C(C)C(OC2CC(C)(OC)C(OC(=O)CCN(CC)CC)C(C)O2)C(C)C(OC2OC(C)CC(N(C)C)C2O)C(C)(OC)CC(C)C(=O)NC(C)C(O)C1(C)O (centres unmarked) [Example 8, 4″-O-(3-Diethylamino-propionyl)-6-O-methyl-9a-aza-9a-homoerythromycin A]
Percentage of inhibition of IL-2 production (IL-2; 10 μM): 100%
Percentage of inhibition of IL-2 production (IL-2; 50 μM): 100%
% decrease of neutrophils in BALF (neutrophils): 52%
% decrease of total cell no. in BALF (neutrophils): 84%
Percentage of inhibition of degranulation of granulocytes (granulocytes; A23187 0.5 μM, compound 10 μM): 10%
Percentage of inhibition of degranulation of granulocytes (granulocytes; A23187 0.5 μM, compound 50 μM): 24%
Percentage of inhibition of degranulation of granulocytes (granulocytes; fMLP 0.1 μM, compound 10 μM): 52%
Percentage of inhibition of degranulation of granulocytes (granulocytes; fMLP 0.1 μM, compound 50 μM): 72%
Percentage of decrease of IL-6 concentration in BALF (IL-6): 67%
Percentage of inhibition of IL-5 production (IL-5; 10 μM): 34%
Percentage of inhibition of IL-5 production (IL-5; 50 μM): 85%
Percentage of decrease of TNF-α concentration in BALF (TNF-α): 69%
Survival (%) (LPS-induced septic shock; 10 mg/kg i.p.): 50%
Survival (%) (LPS-induced septic shock; 100 mg/kg p.o.): 100%
